Measurements: patent US20120282710A1, “LIGAND BINDING DOMAINS OF NUCLEAR RECEPTORS IN CONTROLLABLE FORM AND METHODS INVOLVING THE SAME” (SANOFI, priority 2007, published 2012)
Where a name gives a salt, the structure may show the parent alone.

What was measured:
RORαLBD protein = biological target: T1, RORαLBD protein (Homo sapiens, UniProt P35398); assay: co-factor recruitment fluorescence resonance energy transfer assay (FRET), Example 1; format: biochemical; conditions: for co-factor recruitment (fluorescence ratios at 665 nm and 612 nm): time resolved measurement, 20 nM RORαLBD, 400 nM biotin-labeled peptide, 2 hrs
T1 construct: made in house; host or cells: Sf9 insect cells (baculovirus, pVL1393)
T1 sequence (P35398 with tags, fused parts or gaps): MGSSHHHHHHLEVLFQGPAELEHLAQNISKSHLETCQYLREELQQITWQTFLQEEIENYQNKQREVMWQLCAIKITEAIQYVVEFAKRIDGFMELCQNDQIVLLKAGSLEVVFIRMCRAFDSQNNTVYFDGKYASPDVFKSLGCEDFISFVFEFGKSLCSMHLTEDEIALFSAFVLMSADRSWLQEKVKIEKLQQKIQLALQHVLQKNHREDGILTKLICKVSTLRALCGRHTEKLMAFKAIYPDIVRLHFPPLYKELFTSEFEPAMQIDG
Method: 20 nM RORαLBD protein labeled with equimolar amounts of fluorescent anti-6×His antibody were incubated with 400 nM of the respective biotin-labeled peptide and equimolar amounts of a streptavidin-tagged fluorophore in a buffer containing 50 mM Tris, 100 mM NaCl, 1 mM DTT and 0.1% BSA for 2 hrs.

[1] = biological target: T2, 6×His-RORalphaLBD protein (Homo sapiens, UniProt P35398); assay: TR-FRET assay measuring RORalphaLBD interaction with the LXXLL peptide SRC1−NR1+2, Example 2; format: biochemical; conditions: for binding of co-activator peptide SRC1−NR1+2 to RORα (increase in fluorescence intensity ratio): FIG. 2, increasing concentrations versus solvent only
T2 construct: made in house; host or cells: Sf9 insect cells (baculovirus, pVL1393)
T2 sequence (P35398 with tags, fused parts or gaps): T1 sequence (P35398 with tags, fused parts or gaps)
Text: In this assay, RORα is detected by a specific antibody bound to FRET donor Europium (Eu). The co-activator (CA) is biotin labeled. The biotin label is detecting by streptavidin, which encompasses the FRET acceptor allophycocyanin (APC) marker. If an agonist is bound to RORα, the NR is activated a CA binds to the NR. Accordingly, APC is brought into proximity of Eu, leading to a detecting FRET signal (left panel).
TR-FRET Assay Measuring RORalphaLBD Interaction with the LXXLL Peptide, SRC1−NR1+2
• 6×His-RORalpha: • source: Protein Production (Lab. Thomas Langer) treated with 3 mM LDS, stock solution at 1.5 mg/ml, storage at −20° C., pipetting at room temperature, corresponding to 47.5 μM (with MW 31.6 kD), Concentration in the assay=20 nM • SRC1−NR1+2: • source: JPT Peptide Technologies, stock solution at 250 μM, storage at −20° C., concentration in the assay=400 nM
• anti-6×His antibody: • source: Perkin Elmer #AD0110, stock solutions are at varying concentration with each batch, storage at −20° C., concentration in the assay=20 nM • strep-APC: • source: Perkin Elmer #AD0201, stock solutions are at varying concentration with each batch, storage at +4° C. after reconstitution, concentration in the assay=200 nM (based on streptavidin)
• Cholesterol sulfate: • source: SIGMA #C9523, stock solution in DMSO (30 mM), storage at −20° C.
• 50 mM Tris, 100 mM NaCl, 1 mM DTT, 0.1% Bovine Serum Albumin (add BSA fresh each day), adjust pH to 7.4
• Test plates: CORNING Costar #3639 (96 well half area)
All proteins, labels and compounds were diluted in the assay buffer just prior to assay setup. This assay was realised in 96 well half area plates. The final test volume was 20 μl. It is divided in 2 pipetting steps:
First, a mix containing 6×His-RORalphaLBD protein, BiotinSRC1−NR1+2 peptide, anti-6×His antibody and strep-APC was prepared on ice in the following concentrations: […]
The plates were incubated for 2 h in subdued light at room temperature and read on a Tecan ULTRA at room temperature with 340 nm excitation and 612 nm as Europium reference and 665 nm as APC FRET signal.

Row | SMILES | EC50 (RORαLBD protein) [µM] | co-factor recruitment (fluorescence ratios at 665 nm and 612 nm) (RORαLBD protein) | EC50 [1] [µM] | binding of co-activator peptide SRC1−NR1+2 to RORα (increase in fluorescence intensity ratio) [1]
1 | CC(C)CCC[C@@H](C)[C@H]1CC[C@H]2[C@@H]3CC=C4C[C@@H](OS(=O)(=O)O)CC[C@]4(C)[C@H]3CC[C@]12C [Cholesterol sulfate] | 22 | dose-dependent co-factor recruitment | ~10 | dose-dependently induce binding
2 | CC(C)CCC[C@@H](C)[C@H]1CC[C@H]2[C@@H]3CC=C4C[C@@H](O)CC[C@]4(C)[C@H]3CC[C@]12C [Cholesterol] | – | dose-dependent co-factor recruitment | – | dose-dependently induce binding
